Assay results taken from US12396459B2, “Synergistically effective herbicide composition comprising pyridate and at least one defined 4-HPPD inhibitor” (BELCHIM CROP PROTECTION NV, priority 2018, dated 2025).

Experiments:
Type in all cases: in vivo
Setaria verticillata = experiment: Examples 6-8 herbicidal effect: SETVE; conditions: 7 DAA
Chenopodium album [1] = experiment: Examples 6-8 herbicidal effect: CHEAL; conditions: 7 DAA
Solanum nigrum = experiment: Examples 6-8 herbicidal effect: SOLNI; conditions: 7 DAA
Geranium dissectum = experiment: Examples 6-8 herbicidal effect: GERDI; conditions: 7 DAA
Echinochloa crus-galli = experiment: Examples 6-8 herbicidal effect: ECHCG; conditions: 7 DAA
Veronica persica = experiment: Examples 6-8 herbicidal effect: VERPE; conditions: 7 DAA
Matricaria chamomilla = experiment: Examples 6-8 herbicidal effect: MATCH; conditions: 7 DAA
Digitaria sanguinalis = experiment: Examples 6-8 herbicidal effect: DIGSA; conditions: 7 DAA
Poa annua = experiment: Examples 6-8 herbicidal effect: POAAN; conditions: 7 DAA
Lamium amplexicaule = experiment: Example 6 herbicidal effect: LAMAM; conditions: 7 DAA
Bassia scoparia = experiment: Field trial post-emergence in maize: KCHSC; conditions: 13-14 DAA; # = 2; g a.c./ha: PYR 450, TEM 38, PYR + TEM 450 + 38
Method: (§1) Herbicidal activity of herbicide compositions according to the first aspect of the present invention with regard to different types of unwanted vegetation was determined during trials performed on test fields (field trials). Individual compositions comprising pyridate and individual compositions comprising a defined 4-HPPD inhibitor are compared with a herbicide composition according to the invention comprising both pyridate and a defined 4-HPPD inhibitor. The expected activity of the combination of the active compounds pyridate and a defined 4-HPPD inhibitor is calculated according to above mentioned calculation method by Colby, in order to evaluate a synergistic effect between pyridate and a defined 4-HPPD inhibitor.
(§2) Herbicidal activity was determined by applying herbicide compositions on emerged unwanted vegetation on fields where maize was cultivated. Pyridate and a defined 4-HPPD inhibitor were applied as a tank mixture by mixing these active compounds prior to use in a spray tank. The corresponding mixture was in the form of a spray liquor. […] At a specified number of days after application (DAA), the degree of damage to the unwanted vegetation is rated in % of plants of unwanted vegetation that were killed, which was assessed by visually controlling the plants.

Chenopodium album [2] = experiment: Field trial post-emergence in maize: CHEAL; conditions: 13-14 DAA, # = 1
Method: as §1
(§3) Herbicidal activity was determined by applying herbicide compositions on emerged unwanted vegetation on fields where maize was cultivated. Pyridate and a defined 4-HPPD inhibitor were applied as a tank mixture by mixing these active compounds prior to use in a spray tank. The corresponding mixture was in the form of a spray liquor. Besides, spray liquors of individual compositions comprising pyridate and of individual compositions comprising a defined 4-HPPD inhibitor were used. Test plants of unwanted vegetation with a growth stage corresponding to BBCH 10-18 (according to the extended BBCH-scale) were sprayed with the active compound preparations such that particular desired amounts of active compounds are applied per unit area. Spray liquor was diluted with water to arrive at an application volume of 50 to 450 L/ha. At a specified number of days after application (DAA), the degree of damage to the unwanted vegetation is rated in % of plants of unwanted vegetation that were killed, which was assessed by visually controlling the plants.

Sinapis arvensis = experiment: Field trial post-emergence in maize: SINAR; conditions: 13-14 DAA; # = 1; g a.c./ha: PYR 450, TOP 12.4, PYR + TOP 450 + 12.4
Method: as §1, §2

Amaranthus retroflexus = experiment: Field trial post-emergence in maize: AMARE; conditions: 13-14 DAA; # = 1; g a.c./ha: PYR 450, TOP 12.4, PYR + TOP 450 + 12.4
Method: as §1, §3

[3] = system: Brassica rapa Canola cultivars; experiment: Field trial post-emergence in maize: BRSRC; conditions: 13-14 DAA; # = 1; g a.c./ha: PYR 450, TOP 12.4, PYR + TOP 450 + 12.4
Method: as §1, §3

[4] = g a.c./ha: PYR 300, SCT 300, PYR + SCT 300 + 300
[5] = g a.c./ha: PYR 450, SCT 450, PYR + SCT 300 + 450
[6] = g a.c./ha: SMO 800, PYR + NIC 300 + 30
[7] = g a.c./ha: PYR 10, TEM 22, PYR + TEM 10 + 100
[8] = g a.c./ha: PYR 300, TEM 100, PYR + TEM 300 + 100
[9] = g a.c./ha: PYR 900, TEM 44, PYR + TEM 900 + 44

Question: With `COc1cc(OC)nc(NC(=O)NS(=O)(=O)c2ncccc2C(=O)N(C)C)n1` [NIC, nicosulfuron] as the compound, how does the “herbicidal effect (h.e.)” value (Setaria verticillata; NIC 30 g a.c./ha) read?
Answer: The value was 37%.

Question: And the “herbicidal effect (h.e.)” value (Chenopodium album [1]; NIC 30 g a.c./ha)?
Answer: The value was 24%.

Question: What about the “herbicidal effect (h.e.)” value (Solanum nigrum; NIC 30 g a.c./ha) of the same compound?
Answer: The value was 17%.

Question: What about the “herbicidal effect (h.e.)” value (Geranium dissectum; NIC 30 g a.c./ha) of the same compound?
Answer: Its value is 33%.

Question: And the “herbicidal effect (h.e.)” value (Echinochloa crus-galli; NIC 30 g a.c./ha)?
Answer: Its value is 38%.

Question: And the “herbicidal effect (h.e.)” value (Veronica persica; NIC 30 g a.c./ha)?
Answer: Its value is 7%.

Question: And the “herbicidal effect (h.e.)” value (Matricaria chamomilla; NIC 30 g a.c./ha)?
Answer: Its value is 6%.

Question: And the “herbicidal effect (h.e.)” value (Digitaria sanguinalis; NIC 30 g a.c./ha)?
Answer: Its value is 32%.

Question: And the “herbicidal effect (h.e.)” value (Poa annua; NIC 30 g a.c./ha)?
Answer: The value was 75%.

Question: `CS(=O)(=O)c1ccc(C(=O)C2C(=O)CCCC2=O)c(Cl)c1` [SCT, 2-[2-Chloro-4-(methylsulfonyl)benzoyl]cyclohexane-1,3-dione] was tested. Which “herbicidal effect (h.e.)” value (Setaria verticillata; [4]) did it give?
Answer: The value was 2%.

Question: What about the “herbicidal effect (h.e.)” value (Setaria verticillata; [5]) of the same compound?
Answer: Its value is 2%.

Question: And the “herbicidal effect (h.e.)” value (Chenopodium album [1]; [4])?
Answer: Its value is 30%.

Question: What about the “herbicidal effect (h.e.)” value (Chenopodium album [1]; [5]) of the same compound?
Answer: The value was 45%.

Question: And the “herbicidal effect (h.e.)” value (Solanum nigrum; [4])?
Answer: The value was 53%.

Question: And the “herbicidal effect (h.e.)” value (Solanum nigrum; [5])?
Answer: Its value is 53%.

Question: What about the “herbicidal effect (h.e.)” value (Geranium dissectum; [4]) of the same compound?
Answer: Its value is 28%.

Question: And the “herbicidal effect (h.e.)” value (Geranium dissectum; [5])?
Answer: Its value is 50%.

Question: What about the “herbicidal effect (h.e.)” value (Echinochloa crus-galli; [4]) of the same compound?
Answer: Its value is 58%.

Question: What about the “herbicidal effect (h.e.)” value (Echinochloa crus-galli; [5]) of the same compound?
Answer: The value was 60%.

Question: What about the “herbicidal effect (h.e.)” value (Veronica persica; [4]) of the same compound?
Answer: The value was 83%.

Question: And the “herbicidal effect (h.e.)” value (Veronica persica; [5])?
Answer: The value was 80%.

Question: And the “herbicidal effect (h.e.)” value (Matricaria chamomilla; [4])?
Answer: The value was 28%.

Question: What about the “herbicidal effect (h.e.)” value (Matricaria chamomilla; [5]) of the same compound?
Answer: The value was 25%.

Question: What about the “herbicidal effect (h.e.)” value (Digitaria sanguinalis; [4]) of the same compound?
Answer: Its value is 60%.

Question: And the “herbicidal effect (h.e.)” value (Digitaria sanguinalis; [5])?
Answer: Its value is 53%.

Question: And the “herbicidal effect (h.e.)” value (Poa annua; [4])?
Answer: The value was 3%.

Question: What about the “herbicidal effect (h.e.)” value (Poa annua; [5]) of the same compound?
Answer: The value was 3%.

Question: `CCc1cccc(C)c1N(C(=O)CCl)[C@@H](C)COC` [SMO, S-metolachlor] was tested. Which “herbicidal effect (h.e.)” value (Setaria verticillata; [6]) did it give?
Answer: Its value is 0%.

Question: And the “herbicidal effect (h.e.)” value (Chenopodium album [1]; [6])?
Answer: The value was 1%.

Question: What about the “herbicidal effect (h.e.)” value (Solanum nigrum; [6]) of the same compound?
Answer: Its value is 3%.

Question: What about the “herbicidal effect (h.e.)” value (Geranium dissectum; [6]) of the same compound?
Answer: Its value is 0%.

Question: What about the “herbicidal effect (h.e.)” value (Echinochloa crus-galli; [6]) of the same compound?
Answer: Its value is 0%.

Question: And the “herbicidal effect (h.e.)” value (Veronica persica; [6])?
Answer: The value was 5%.

Question: What about the “herbicidal effect (h.e.)” value (Matricaria chamomilla; [6]) of the same compound?
Answer: Its value is 0%.

Question: What about the “herbicidal effect (h.e.)” value (Digitaria sanguinalis; [6]) of the same compound?
Answer: Its value is 0%.

Question: And the “herbicidal effect (h.e.)” value (Poa annua; [6])?
Answer: Its value is 0%.

Question: For `CS(=O)(=O)c1ccc(C(=O)C2C(=O)CCCC2=O)c(Cl)c1COCC(F)(F)F` [TEM, 2-[2-chloro-4-methylsulfonyl-3-(2,2,2-trifluoroethoxymethyl)benzoyl]cyclohexane-1,3-dione], which “herbicidal effect (h.e.)” value (Setaria verticillata; [7]) is on record?
Answer: The value was 0%.

Question: What about the “herbicidal effect (h.e.)” value (Setaria verticillata; [8]) of the same compound?
Answer: Its value is 100%.

Question: What about the “herbicidal effect (h.e.)” value (Setaria verticillata; [9]) of the same compound?
Answer: The value was 18%.

Question: And the “herbicidal effect (h.e.)” value (Chenopodium album [1]; [7])?
Answer: The value was 68%.

Question: What about the “herbicidal effect (h.e.)” value (Chenopodium album [1]; [8]) of the same compound?
Answer: The value was 78%.

Question: What about the “herbicidal effect (h.e.)” value (Chenopodium album [1]; [9]) of the same compound?
Answer: The value was 96%.

Question: What about the “herbicidal effect (h.e.)” value (Lamium amplexicaule; [7]) of the same compound?
Answer: The value was 25%.

Question: And the “herbicidal effect (h.e.)” value (Lamium amplexicaule; [8])?
Answer: The value was 40%.

Question: What about the “herbicidal effect (h.e.)” value (Lamium amplexicaule; [9]) of the same compound?
Answer: Its value is 100%.

Question: And the “herbicidal effect (h.e.)” value (Solanum nigrum; [7])?
Answer: Its value is 40%.

Question: And the “herbicidal effect (h.e.)” value (Solanum nigrum; [8])?
Answer: The value was 80%.

Question: What about the “herbicidal effect (h.e.)” value (Solanum nigrum; [9]) of the same compound?
Answer: Its value is 85%.

Question: And the “herbicidal effect (h.e.)” value (Bassia scoparia)?
Answer: The value was 40%.

Question: And the “herbicidal effect (h.e.)” value (Geranium dissectum; [7])?
Answer: Its value is 8%.

Question: And the “herbicidal effect (h.e.)” value (Geranium dissectum; [8])?
Answer: Its value is 33%.

Question: What about the “herbicidal effect (h.e.)” value (Geranium dissectum; [9]) of the same compound?
Answer: The value was 20%.

Question: And the “herbicidal effect (h.e.)” value (Echinochloa crus-galli; [7])?
Answer: Its value is 83%.

Question: And the “herbicidal effect (h.e.)” value (Echinochloa crus-galli; [8])?
Answer: The value was 85%.

Question: What about the “herbicidal effect (h.e.)” value (Echinochloa crus-galli; [9]) of the same compound?
Answer: Its value is 95%.

Question: What about the “herbicidal effect (h.e.)” value (Veronica persica; [7]) of the same compound?
Answer: The value was 8%.

Question: What about the “herbicidal effect (h.e.)” value (Veronica persica; [8]) of the same compound?
Answer: Its value is 53%.

Question: And the “herbicidal effect (h.e.)” value (Veronica persica; [9])?
Answer: Its value is 53%.

Question: And the “herbicidal effect (h.e.)” value (Matricaria chamomilla; [7])?
Answer: The value was 15%.

Question: And the “herbicidal effect (h.e.)” value (Matricaria chamomilla; [8])?
Answer: The value was 100%.

Question: And the “herbicidal effect (h.e.)” value (Matricaria chamomilla; [9])?
Answer: Its value is 70%.

Question: And the “herbicidal effect (h.e.)” value (Digitaria sanguinalis; [7])?
Answer: Its value is 59%.

Question: And the “herbicidal effect (h.e.)” value (Digitaria sanguinalis; [8])?
Answer: Its value is 99%.

Question: What about the “herbicidal effect (h.e.)” value (Digitaria sanguinalis; [9]) of the same compound?
Answer: The value was 95%.

Question: What about the “herbicidal effect (h.e.)” value (Poa annua; [7]) of the same compound?
Answer: The value was 10%.

Question: And the “herbicidal effect (h.e.)” value (Poa annua; [8])?
Answer: The value was 32%.

Question: What about the “herbicidal effect (h.e.)” value (Poa annua; [9]) of the same compound?
Answer: Its value is 13%.

Question: And the “herbicidal effect (h.e.)” value (Chenopodium album [2]; g a.c./ha: PYR 450, TEM 38, PYR + TEM 450 + 38)?
Answer: The value was 0%.

Question: What does the source list for `Cc1c(C(=O)c2c[nH]n(C)c2=O)ccc(S(C)(=O)=O)c1C1=NOCC1` [TOP, 4-[3-(4,5-dihydro-1,2-oxazol-3-yl)-2-methyl-4-methylsulfonylbenzoyl]-2-methyl-1H-pyrazol-3-one]?
Answer: herbicidal effect (h.e.) (Sinapis arvensis): 50%; herbicidal effect (h.e.) (Amaranthus retroflexus): 18%; herbicidal effect (h.e.) [3]: 50%; herbicidal effect (h.e.) (Chenopodium album [2]; g a.c./ha: PYR 450, TOP 12.4, PYR + TOP 450 + 12.4): 1%
